Values quoted from earlier work, collected in patent US11396520B2, “Synthesis of the organoarsenical antibiotic arsinothricin and derivatives thereof” (THE FLORIDA INTERNATIONAL UNIVERSITY BOARD OF TRUSTEES, priority 2020, dated 2022).

Columns and labels:
glutamine synthetase = conditions: stated in words, no test described
Mycobacterium bovis BCG = conditions: M. bovis BCG; stated in words, no test described
[1] = system: Gram-positive and Gram-negative bacteria; conditions: stated in words, no test described
[2] = system: carbapenem-resistant Enterobacter cloacae (CRE); conditions: WHO ESKAPE pathogen CRE; stated in words, no test described

NC(CC[AsH](=O)CO)C(=O)O (stereo not shown) [AST, 2-amino-4-(hydroxymethylarsinoyl)-butanoic acid]
inhibition of glutamine synthetase (glutamine synthetase): inhibits glutamine synthetase
antibiotic activity (Mycobacterium bovis BCG): effective against
antibiotic activity [1]: effective against both Gram-positive and Gram-negative bacteria
antibiotic activity [2]: effective against
